Source: patent US10183032B2, “Methods for treating bacterial infection” (Ball State Innovation Corporation, priority 2012, dated 2019)
Read-outs that look alike come from different tables or passages of the source.

Key:
actin stress fibers = assay: Actin stress fiber depolymerization in HUVEC during S. aureus infection; format: cell-based, human; conditions: 18-20 h pretreatment, S. aureus 1 h
Protocol: (§1) FIG. 8A is an image depicting ML 141 limiting actin stress fiber depolymerization during infection. Human umbilical vein endothelial cells (HUVEC) were incubated with ML 141 or with the vehicle control polyethylene glycol (PEG) 18-20 h prior to infection with Staphylococcus aureus (1 h). Actin was detected using Alexa Fluor 488 phalloidin. Arrows indicate intact actin stress fibers. Arrowhead indicates cell lacking actin stress fibers. 100 cells/treatment were evaluated from randomly selected fields. Data are presented as the % of cells in which actin stress fibers were not detected. Scale bar is 50 μm.
as §1, with “8B” for “8A”, “RSM 06” for “ML 141”, “200” for “Arrows indicate intact actin stress fibers. Arrowhead indicates cell lacking actin stress fibers. 100”
as §1, with “8C” for “8A”, “RSM 16” for “ML 141”, “200” for “Arrows indicate intact actin stress fibers. Arrowhead indicates cell lacking actin stress fibers. 100”
HUVEC are plated at 1×10^5 cells/ml into 35 mm glass-bottom dishes (MatTek, Ashland, Mass.) are coated with Attachment Factor, are pretreated, and are infected (1.2×10^8 CFU) as described above. […] Alexa 488 is excited by the 488 nanommeter Ar laser line and is detected using a 505-530 nanometer bandpass filter. […] Maximum pixel projections from the Z-stacks are generated and are analyzed for actin morphology.

[1] = In vivo toxicity, single intraperitoneal injection; conditions: dissolved in polyethylene glycol, C57BL/6 mice
Protocol: (§2) Specific pharmacologic inhibition of CDC42 has been examined to determine whether it is sufficient in the inhibition of host cell invasion by S. aureus. Host cell cytotoxicity was undetectable below 30 μM in vitro. The highest concentration of ML 141 introduced in vivo without detectable toxicity was 100 mg/kg body weight [BW]. The compound was dissolved in polyethylene glycol and administered as a single intraperitoneal injection to C57BL/6 mice.

Streptococcus pyogenes = Streptococcus pyogenes invasion assay in HUVEC, CFU recovery; format: cell-based; conditions: for inhibition at 10 µM: Streptococcus pyogenes, HUVEC
Protocol: FIG. 12 is a graph illustrating that ML 141 inhibition of cell invasion by S. pyogenes is reversible. HUVEC were pretreated with ML 141 (10 μM) or with dimethyl sulfoxide (DMSO) as the vehicle control (1 h). Following pretreatment, ML 141-containing media was removed from the washout samples and replaced with DMSO-containing media for 60 min prior to incubation with Streptococcus pyogenes at a multiplicity of infection of 30 (2 h). Extracellular bacteria were removed by gentamicin, an antimicrobial with limited mammalian membrane permeability. Intracellular bacteria were released from HUVEC into the medium by incubation in cold water (5 min). Serial dilutions were incubated (16 h) on Todd Hewitt broth/blood agar plates and colonies enumerated to determine colony forming units (CFU)/ml (*P<0.05 by one-way ANOVA followed by Student-Newman-Keuls post-hoc analysis; n=4/treatment).
Human umbilical vein endothelial cells (HUVEC, EMD Millipore, Billerica, Mass., SCCE001) were cultured in EndoGRO-LS complete media (EMD Millipore, SCME001) and maintained in 75 cm^2 vented cap flasks (Thermo-Fisher Scientific, Pittsburgh, Pa., 10-126-37) at 37° C./5% CO2. Streptococcus pyogenes (90-226, M1+) was cultured in Todd Hewitt broth (THB, Thermo-Fisher Scientific, DF0492-17-6) and grown at 37° C. with no shaking.
Two days prior to infection, S. pyogenes were cultured in 5 ml THB 18-24 h from a single colony grown on THB/blood (Cleveland Scientific, Bath, Ohio, SBCIT-100) agar (Moorhead & Company, Rocklin, Calif., gelidium), and 10 μl subcultured 18 h prior to infection. HUVEC were seeded in 24-well plates (Sigma-Aldrich, St. Louis, Mo., CLS3524) that had been coated with Attachment Factor (Life Technologies, Carlsbad, Calif., S006100) for 30 min at 37° C./5% CO2. HUVEC were plated at a density of 1.5×10^5 cells/well. For infection, S. pyogenes were harvested by centrifugation, 37° C./3 min/10,000 RPM, washed, and resuspended in fresh 0.85% saline (NaCl, Thermo-Fisher Scientific, S-271-500). Bacteria were diluted to 4.8×10^8 colony forming units (CFU)/ml and incubated at 37° C./5% CO2 with HUVEC at multiplicity of infection and for duration indicated in each figure or table. CFU of 90-226 S. pyogenes had been determined from a growth curve, fitting an OD600 of 0.5 to 4.8×10^8 CFU/ml. After infection, each well was washed three times with sterile 1× phosphate buffered saline (PBS, Life Technologies, 20012043) to remove unattached S. pyogenes. HUVEC were then incubated at 37° C., 5% CO2 for 45 min in 10% fetal bovine serum (FBS, Atlanta Biologicals, Flowery Branch, Ga., S111S0)/PBS containing 500 μg/ml gentamicin (Sigma-Aldrich, G1272). Following the incubation with gentamicin to remove extracellular bacteria, HUVEC were washed three times with PBS. Sterile distilled ice-cold water (Life Technologies, 15230-162) was added to each well for 5 min at room temperature (RT) to permeabilize the host cells. Serial dilutions of this bacteria-containing water were performed in saline, plated on THB/blood agar, and incubated for 18-20 h at 37° C. The following day, colonies were counted to determine CFU/ml recovered from invasion.

Staphylococcus aureus = assay: S. aureus invasion of monocytic cell line U937, flow cytometry; format: cell-based; conditions: pretreatment 0.05 μM, 1 hour
Protocol: FIG. 1 illustrates ML 141 limits host cell invasion. The monocytic cell line U937 was pretreated with the vehicle control dimethyl sulfoxide (DMSO) or with ML 141 (0.05 μM, 1 h) followed by infection with Alexa Fluor 488-labeled S. aureus (1 hour). The % of 488^+ cells decreased with ML 141 treatment.
as §2

COc1ccc(C2CC(c3ccccc3)=NN2c2ccc(S(N)(=O)=O)cc2)cc1 (stereo not shown) [ML 141, 4-[3-(4-methoxyphenyl)-5-phenyl-3,4-dihydropyrazol-2-yl]benzenesulfonamide]
depolymerization of actin stress fibers during infection (actin stress fibers): remained intact | highest concentration introduced in vivo without detectable toxicity [1]: 100 mg/kg body weight | reversibility of inhibition of S. pyogenes invasion (Streptococcus pyogenes; ML 141 10 μM 1 h, washout 60 min, MOI 30, 2 h): reversible | % Inhibition (± SEM) (Streptococcus pyogenes; ML 141 10 μM added 1 hour post-infection, 2 h, MOI 0.25): No difference | % Inhibition (± SEM) (Streptococcus pyogenes; ML 141 10 μM added at time of infection, 2 h, MOI 30): No difference | inhibition at 10 µM (Streptococcus pyogenes; 2 h, read-out: % Inhibition (± SEM), ML 141 10 μM added at time of infection, 2 h, MOI 0.25 (first line)): 81 ± 7% | inhibition at 10 µM (Streptococcus pyogenes; 2 h, read-out: % Inhibition (± SEM), ML 141 10 μM added at time of infection, 2 h, MOI 0.25 (second line)): 62 ± 10% | inhibition at 10 µM (Streptococcus pyogenes; read-out: % Inhibition (± SEM), ML 141 10 μM added 18-20 hours pre-infection, duration of infection 2 h, MOI 30): 96 ± 4% | inhibition at 10 µM (Streptococcus pyogenes; read-out: % Inhibition (± SEM), ML 141 10 μM added 1 hour post-infection, 2 h, MOI 0.0025): 92 ± 6% | invasion by S. aureus (% of 488+ cells) (Staphylococcus aureus): decreased invasion
